# From ChEMBL document CHEMBL2163275, “The lipogenesis pathway as a cancer target” (J Med Chem, 2011)
# How the values were obtained:
# ATP-citrate synthase [1] = target: T1, ATP-citrate synthase (Homo sapiens, UniProt P53396); test: Inhibition of human recombinant ACLY
# T1 sequence (P53396 whole entry): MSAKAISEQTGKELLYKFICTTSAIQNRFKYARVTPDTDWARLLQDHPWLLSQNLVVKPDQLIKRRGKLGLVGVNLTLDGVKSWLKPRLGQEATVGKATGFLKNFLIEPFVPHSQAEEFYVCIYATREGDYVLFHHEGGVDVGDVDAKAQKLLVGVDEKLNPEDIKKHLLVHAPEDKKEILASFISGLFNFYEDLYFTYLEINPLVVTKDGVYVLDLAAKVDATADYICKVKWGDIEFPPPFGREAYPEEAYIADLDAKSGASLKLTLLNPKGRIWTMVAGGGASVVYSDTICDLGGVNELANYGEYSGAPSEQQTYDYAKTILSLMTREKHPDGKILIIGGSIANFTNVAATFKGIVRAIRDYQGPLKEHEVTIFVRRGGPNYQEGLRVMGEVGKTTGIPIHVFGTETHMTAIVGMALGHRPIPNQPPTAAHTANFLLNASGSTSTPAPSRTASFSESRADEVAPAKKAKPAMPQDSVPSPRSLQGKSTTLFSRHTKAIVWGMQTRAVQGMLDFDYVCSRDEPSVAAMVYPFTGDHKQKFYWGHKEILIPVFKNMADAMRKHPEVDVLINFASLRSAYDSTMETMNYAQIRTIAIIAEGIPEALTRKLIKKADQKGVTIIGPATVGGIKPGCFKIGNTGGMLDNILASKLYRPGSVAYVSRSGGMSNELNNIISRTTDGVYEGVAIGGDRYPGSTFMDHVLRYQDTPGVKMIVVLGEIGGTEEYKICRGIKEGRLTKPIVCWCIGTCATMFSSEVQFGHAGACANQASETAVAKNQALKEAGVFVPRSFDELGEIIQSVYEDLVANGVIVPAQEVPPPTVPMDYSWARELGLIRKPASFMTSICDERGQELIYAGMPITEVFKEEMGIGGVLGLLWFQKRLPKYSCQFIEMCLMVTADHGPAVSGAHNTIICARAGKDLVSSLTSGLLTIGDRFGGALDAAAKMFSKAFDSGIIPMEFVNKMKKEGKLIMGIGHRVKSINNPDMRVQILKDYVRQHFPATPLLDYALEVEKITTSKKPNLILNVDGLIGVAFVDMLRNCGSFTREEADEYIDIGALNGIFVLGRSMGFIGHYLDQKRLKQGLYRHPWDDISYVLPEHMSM
# Fatty acid synthase [2] = target: T2, Fatty acid synthase (Homo sapiens, UniProt P49327); test: Inhibition of FASN in human SKBR3 cells at 21 uM after 3 mins by spectrophotometric analysis relative to control; assay type: cell-based; conditions: SK-BR-3
# Target sequence in this assay (P49327 whole entry, looked up): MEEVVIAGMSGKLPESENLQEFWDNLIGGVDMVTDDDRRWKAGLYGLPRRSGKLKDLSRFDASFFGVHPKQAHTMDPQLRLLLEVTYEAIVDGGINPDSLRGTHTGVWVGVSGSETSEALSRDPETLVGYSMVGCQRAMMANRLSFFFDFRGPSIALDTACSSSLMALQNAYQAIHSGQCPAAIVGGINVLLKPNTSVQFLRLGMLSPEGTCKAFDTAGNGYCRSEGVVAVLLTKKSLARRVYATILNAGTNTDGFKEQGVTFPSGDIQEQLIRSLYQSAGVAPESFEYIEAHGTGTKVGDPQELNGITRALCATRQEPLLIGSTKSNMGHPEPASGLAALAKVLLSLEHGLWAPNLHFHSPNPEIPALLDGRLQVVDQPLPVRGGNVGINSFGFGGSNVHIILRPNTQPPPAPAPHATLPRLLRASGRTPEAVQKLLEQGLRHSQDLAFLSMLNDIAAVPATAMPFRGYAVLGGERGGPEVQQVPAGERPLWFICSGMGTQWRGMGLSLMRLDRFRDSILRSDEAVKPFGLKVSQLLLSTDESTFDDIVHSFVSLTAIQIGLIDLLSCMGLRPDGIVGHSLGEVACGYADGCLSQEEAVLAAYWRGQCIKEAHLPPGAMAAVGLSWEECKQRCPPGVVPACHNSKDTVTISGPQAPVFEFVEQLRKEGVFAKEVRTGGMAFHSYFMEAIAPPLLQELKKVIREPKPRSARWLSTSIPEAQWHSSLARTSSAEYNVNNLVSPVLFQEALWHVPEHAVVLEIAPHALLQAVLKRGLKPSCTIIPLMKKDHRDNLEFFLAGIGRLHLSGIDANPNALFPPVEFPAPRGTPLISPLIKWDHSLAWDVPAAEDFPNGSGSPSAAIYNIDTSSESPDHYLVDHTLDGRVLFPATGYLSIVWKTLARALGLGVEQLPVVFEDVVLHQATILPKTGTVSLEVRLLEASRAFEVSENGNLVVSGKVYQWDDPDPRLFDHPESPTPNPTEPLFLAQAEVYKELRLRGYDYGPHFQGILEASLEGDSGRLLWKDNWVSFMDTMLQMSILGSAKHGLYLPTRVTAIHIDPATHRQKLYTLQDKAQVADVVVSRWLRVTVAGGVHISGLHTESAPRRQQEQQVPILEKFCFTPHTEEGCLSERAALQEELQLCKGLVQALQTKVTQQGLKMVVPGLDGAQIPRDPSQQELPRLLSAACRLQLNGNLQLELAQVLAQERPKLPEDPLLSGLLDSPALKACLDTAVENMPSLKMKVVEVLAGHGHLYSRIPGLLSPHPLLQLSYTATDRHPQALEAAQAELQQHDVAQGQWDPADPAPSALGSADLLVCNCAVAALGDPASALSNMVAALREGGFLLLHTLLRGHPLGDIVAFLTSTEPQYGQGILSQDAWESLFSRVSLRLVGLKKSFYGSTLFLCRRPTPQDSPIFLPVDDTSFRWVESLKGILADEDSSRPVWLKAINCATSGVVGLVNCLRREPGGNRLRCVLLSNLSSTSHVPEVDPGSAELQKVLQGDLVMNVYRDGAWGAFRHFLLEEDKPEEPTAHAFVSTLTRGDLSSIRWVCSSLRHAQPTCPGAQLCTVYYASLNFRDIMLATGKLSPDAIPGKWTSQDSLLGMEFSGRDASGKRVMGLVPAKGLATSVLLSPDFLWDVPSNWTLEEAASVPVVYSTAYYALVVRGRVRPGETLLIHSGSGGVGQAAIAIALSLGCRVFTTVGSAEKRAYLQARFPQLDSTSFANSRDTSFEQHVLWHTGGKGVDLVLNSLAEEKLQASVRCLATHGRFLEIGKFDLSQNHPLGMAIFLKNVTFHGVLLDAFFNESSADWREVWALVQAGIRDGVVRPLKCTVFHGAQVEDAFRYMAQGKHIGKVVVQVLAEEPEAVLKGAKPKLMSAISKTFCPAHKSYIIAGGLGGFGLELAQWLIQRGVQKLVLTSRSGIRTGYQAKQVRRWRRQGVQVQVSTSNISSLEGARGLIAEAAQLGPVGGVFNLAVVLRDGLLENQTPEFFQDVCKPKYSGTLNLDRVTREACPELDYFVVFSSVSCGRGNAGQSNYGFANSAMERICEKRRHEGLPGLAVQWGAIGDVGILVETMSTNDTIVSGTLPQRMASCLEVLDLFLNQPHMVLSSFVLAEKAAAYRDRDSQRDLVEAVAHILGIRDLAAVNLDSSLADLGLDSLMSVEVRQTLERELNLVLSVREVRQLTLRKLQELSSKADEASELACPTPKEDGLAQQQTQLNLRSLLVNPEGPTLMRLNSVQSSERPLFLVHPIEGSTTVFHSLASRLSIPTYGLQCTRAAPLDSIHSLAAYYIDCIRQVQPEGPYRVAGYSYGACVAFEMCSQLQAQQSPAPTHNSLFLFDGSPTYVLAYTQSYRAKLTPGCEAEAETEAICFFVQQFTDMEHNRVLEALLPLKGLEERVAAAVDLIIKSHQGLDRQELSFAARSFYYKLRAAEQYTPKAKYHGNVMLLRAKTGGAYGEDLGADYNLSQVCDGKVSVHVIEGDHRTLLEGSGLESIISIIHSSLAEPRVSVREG
# Fatty acid synthase [3] = target: T2, Fatty acid synthase; test: Inhibition of FASN in human SKBR3 cells at 29 uM after 3 mins by spectrophotometric analysis relative to control; assay type: cell-based; conditions: SK-BR-3
# Target sequence in this assay (P49327 whole entry, looked up): as above
# Fatty acid synthase [4] = target: T2, Fatty acid synthase; conditions: SK-BR-3, 22.4 uM
# Target sequence in this assay (P49327 whole entry, looked up): as above
# Description: Inhibition of FASN in human SKBR3 cells at 22.4 uM
# Fatty acid synthase [5] = target: T2, Fatty acid synthase; conditions: SK-BR-3, 179 uM
# Target sequence in this assay (P49327 whole entry, looked up): as above
# Description: Inhibition of FASN in human SKBR3 cells at 179 uM
# [6] = Competitive inhibition of Escherichia coli ACC carboxyltransferase activity using malonyl coA as substrate
# Escherichia coli = test: Ratio of biotin Ki to compound Ki for Escherichia coli ACC
# Fatty acid synthase [7] = target: T2, Fatty acid synthase; test: Inhibition of FASN in human HepG2 cells; assay type: cell-based
# Target sequence in this assay (P49327 whole entry): as the sequence (P49327 whole entry, looked up) above
# Fatty acid synthase [8] = target: T3, Fatty acid synthase (Gallus gallus, UniProt P12276); test: Inhibition of chicken liver FASN ketoreductase activity
# ATP-citrate synthase [9] = target: T4, ATP-citrate synthase (Rattus norvegicus, UniProt P16638)
# T4 sequence (P16638 whole entry): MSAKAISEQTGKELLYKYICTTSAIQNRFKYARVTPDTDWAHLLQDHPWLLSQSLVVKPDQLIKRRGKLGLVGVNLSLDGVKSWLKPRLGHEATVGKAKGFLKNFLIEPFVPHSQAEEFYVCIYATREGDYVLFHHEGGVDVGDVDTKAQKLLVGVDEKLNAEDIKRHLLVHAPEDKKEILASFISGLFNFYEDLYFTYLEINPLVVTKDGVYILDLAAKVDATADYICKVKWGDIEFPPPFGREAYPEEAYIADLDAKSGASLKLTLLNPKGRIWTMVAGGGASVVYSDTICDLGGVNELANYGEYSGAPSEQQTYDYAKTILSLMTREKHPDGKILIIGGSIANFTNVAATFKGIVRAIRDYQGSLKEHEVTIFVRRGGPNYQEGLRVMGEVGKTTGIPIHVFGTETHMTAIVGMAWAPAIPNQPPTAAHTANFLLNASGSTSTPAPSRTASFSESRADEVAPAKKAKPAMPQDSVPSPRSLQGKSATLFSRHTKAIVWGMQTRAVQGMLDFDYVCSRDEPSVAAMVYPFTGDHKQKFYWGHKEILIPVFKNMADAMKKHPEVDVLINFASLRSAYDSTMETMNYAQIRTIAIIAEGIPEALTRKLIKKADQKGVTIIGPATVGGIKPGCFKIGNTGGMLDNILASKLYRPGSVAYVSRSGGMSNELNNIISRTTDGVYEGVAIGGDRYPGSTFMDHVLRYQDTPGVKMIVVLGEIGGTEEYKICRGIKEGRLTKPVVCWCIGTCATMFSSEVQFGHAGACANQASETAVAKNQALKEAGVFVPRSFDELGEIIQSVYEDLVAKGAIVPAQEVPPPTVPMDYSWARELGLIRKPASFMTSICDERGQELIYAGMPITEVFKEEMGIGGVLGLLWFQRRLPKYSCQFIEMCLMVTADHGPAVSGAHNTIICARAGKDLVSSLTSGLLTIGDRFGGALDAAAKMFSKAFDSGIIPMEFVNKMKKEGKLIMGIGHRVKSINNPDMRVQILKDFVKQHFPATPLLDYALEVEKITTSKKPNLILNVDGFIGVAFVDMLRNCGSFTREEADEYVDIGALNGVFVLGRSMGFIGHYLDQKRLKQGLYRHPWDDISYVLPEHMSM
# [10] = Inhibition of duck liver FASN; parameters: species or system Anas platyrhynchos
# [11] = Inhibition of duck liver FASN ketoreductase activity; parameters: species or system Anas platyrhynchos
# Fatty acid synthase [12] = target: T2, Fatty acid synthase; test: Inhibition of human recombinant FASN thioesterase domain
# Target sequence in this assay (P49327 whole entry): as the sequence (P49327 whole entry, looked up) above
# Fatty acid synthase [13] = target: T3, Fatty acid synthase; test: Inhibition of chicken liver FASN
# HepG2 = test: Cytotoxicity against human HepG2 cells by MTT assay; assay type: functional, cell-based
# ATP-citrate synthase [14] = target: T4, ATP-citrate synthase; test: Inhibition of rat liver ACLY by fluorimetric analysis
# [15] = Inhibition of rat liver ACC
# Fatty acid synthase [16] = target: T2, Fatty acid synthase; test: Inhibition of FASN in human A375 cells; assay type: cell-based, A-375
# Target sequence in this assay (P49327 whole entry): as the sequence (P49327 whole entry, looked up) above
# [17] = Inhibition of rat liver ACC using acetyl coA as substrate and [14C]NaHCO3 incubated for 30 mins prior to substrate addition by liquid scintillation counting
molecule,measurement,setting,value
Cc1cn(-c2cc(Cl)ccc2CCCCCC[C@H](O)C[C@@](O)(CC(=O)O)C(=O)O)cc1C (racemic),Ki,ATP-citrate synthase [1],0.3 µM
O=C(Oc1cc(OC(=O)c2cc(O)c(O)c(O)c2)c2ccccc2c1)c1cc(O)c(O)c(O)c1,inhibition,Fatty acid synthase [2],90%
O=C(Oc1ccc(OC(=O)c2cc(O)c(O)c(O)c2)c2ccccc12)c1cc(O)c(O)c(O)c1,inhibition,Fatty acid synthase [3],69%
CCCCC/C=C\C/C=C\C/C=C\CCCCC(=O)O,inhibition,Fatty acid synthase [4],41%
same,inhibition,Fatty acid synthase [5],78%
CC(C)(COP(=O)(O)OP(=O)(O)OC[C@H]1O[C@@H](n2cnc3c(N)ncnc32)[C@H](O)[C@@H]1OP(=O)(O)O)[C@H](O)C(=O)NCCC(=O)NCCSC(=O)CC(=O)N1C(=O)N[C@@H]2[C@H](CCCCC(=O)OCc3ccccc3)SC[C@@H]21,Ki,[6],23 µM
same,Ratio Ki,Escherichia coli,350
C=C/C(C)=C/[C@]1(C)SC(=O)C(C)=C1O,IC50,Fatty acid synthase [7],208 µM
H-KNPQLR-OH,IC50,Fatty acid synthase [8],80 µM
O=C1C(c2ccc(O)c(O)c2)=c2c(c3c(n2CCc2ccc(O)cc2)=C(c2ccc(O)c(O)c2)C(=O)c2cc(O)c(O)cc2-3)-c2cc(O)c(O)cc21 [PURPURONE],IC50,ATP-citrate synthase [9],7 µM
Cc1cn(-c2cc(Cl)ccc2CCCCCC[C@H](O)C[C@@](O)(CC(=O)O)C(=O)O)cc1C (stereo in doubt; 134),Ki,ATP-citrate synthase [1],0.58 µM
O=C(O[C@@H]1Cc2c(O)cc(O)cc2O[C@H]1c1ccc(O)c(O)c1)c1cc(O)c(O)c(O)c1 [(-)-CATECHINGALLATE],IC50,[10],3.4 µM
same,IC50,[11],30.1 µM
Oc1ccc(/C=C/c2cc(O)cc(O)c2)cc1 [RESVERATROL],IC50,[10],8.5 µM
same,IC50,[11],120 µM
H-RKQEEDEDEEQQRE-OH,IC50,Fatty acid synthase [12],11 µM
same,IC50,Fatty acid synthase [8],16 µM
O=c1c(O[C@@H]2O[C@@H](CO)[C@H](O)[C@H]2O)c(-c2ccc(O)c(O)c2)oc2cc(O)cc(O)c12 [AVICULARIN],IC50,Fatty acid synthase [13],6.15 µM
C=C/C(C)=C/[C@]1(C)SC(=O)C=C1O,IC50,Fatty acid synthase [7],96.8 µM
O=c1cc(-c2ccc(O)c(O)c2)oc2cc(O)cc(O)c12 [LUTEOLIN],IC50,HepG2,71.2 µM
same,IC50,[10],2.52 µM
O=C(O)C[C@](O)(C[C@@H](O)CCCCCn1c(-c2ccccc2)cc2cc(Cl)ccc21)C(=O)O (racemic),Ki,ATP-citrate synthase [1],0.37 µM
O=C(O)C[C@](O)(C[C@@H](O)CCCCCC1c2ccccc2-c2cc(Cl)ccc21)C(=O)O (mixture of isomers),Ki,ATP-citrate synthase [1],0.22 µM
Cc1cn(-c2cc(Cl)ccc2CCCCCC[C@H](O)C[C@@](O)(CC(=O)O)C(=O)O)cc1C (stereo in doubt; 135),Ki,ATP-citrate synthase [1],0.34 µM
O=C1C[C@@](O)(C(=O)O)[C@@H](C(=O)O)O1,Ki,ATP-citrate synthase [14],50 µM
O=C(O)C[C@@](O)(C(=O)O)[C@H](O)C(=O)O,Ki,ATP-citrate synthase [14],8 µM
O=C(O[C@@H]1Cc2c(O)cc(O)cc2O[C@@H]1c1cc(O)c(O)c(O)c1)c1cc(O)c(O)c(O)c1 [EPIGALOCATECHIN GALLATE],IC50,Fatty acid synthase [13],52 µM
same,IC50,Fatty acid synthase [8],100 µM
CC(Cc1ccc(O)c(O)c1)C(C)Cc1ccc(O)c(O)c1 (stereo not given) [NORDIHYDROGUAIARETIC ACID],IC50,[10],9.3 µM
same,IC50,[11],427 µM
Cc1c(-c2cc3ccccc3o2)oc(=O)c(C)c1O,Ki,[15],3.3 µM
CC(C)(C)c1ccc(N2C[C@@H](COc3ccc(C(=O)SCCNC(=O)CCNC(=O)[C@H](O)C(C)(C)COP(=O)(O)OP(=O)(O)OC[C@H]4O[C@@H](n5cnc6c(N)ncnc65)[C@H](O)[C@@H]4OP(=O)(O)O)cc3)CC2=O)cc1,Ki,[15],69.2 µM
C=C1C(=O)O[C@H](CCCCCCCC)[C@H]1C(=O)O (relative stereo),IC50,Fatty acid synthase [12],59 µM
same,IC50,Fatty acid synthase [16],32.4 µM
same,IC50,Fatty acid synthase [8],80 µM
C[C@H]1[C@H](C)CC[C@]2(C(=O)O)CC[C@]3(C)C(=CC[C@@H]4[C@@]5(C)CC[C@H](O)C(C)(C)[C@@H]5CC[C@]43C)[C@H]12 [URSOLIC ACID],IC50,Fatty acid synthase [13],13.1 µM
same,IC50,Fatty acid synthase [8],59.3 µM
O=c1c(O)c(-c2ccc(O)c(O)c2)oc2cc(O)cc(O)c12 [QUERCETIN],IC50,HepG2,30.9 µM
same,IC50,[10],4.29 µM
O=C(O)[C@H](O)[C@](O)(C[C@@H](O)CCCCCCc1ccc(Cl)cc1Cl)C(=O)O (racemic),Ki,ATP-citrate synthase [1],0.62 µM
O=c1c(O)c(-c2ccc(O)cc2)oc2cc(O)cc(O)c12 [KAEMPFEROL],IC50,HepG2,> 400 µM
same,IC50,[10],10.4 µM
O=c1c(O)c(-c2ccc(O)cc2O)oc2cc(O)cc(O)c12 [MORIN],IC50,[10],2.3 µM
same,IC50,[11],26 µM
Cc1cc(O)c2c(c1)Cc1cc(O)c(Cl)c(O)c1C2=O,IC50,ATP-citrate synthase [9],0.283 µM
O=C(/C=C/c1ccc(O)cc1)c1ccc(O)cc1O [ISOLIQUIRITIGENIN],IC50,[10],8.8 µM
same,IC50,[11],141 µM
O=C(O)C[C@](O)(C[C@@H](O)CCCCCn1c2ccccc2c2cc(Cl)ccc21)C(=O)O (racemic),Ki,ATP-citrate synthase [1],0.71 µM
C/C=C/C/C=C/CCC(=O)[C@H]1O[C@H]1C(N)=O [CERULENIN],IC50,Fatty acid synthase [16],21.9 µM
O=C(O)C[C@@]1(C(=O)O)O[C@H]1C(=O)O,Ki,ATP-citrate synthase [9],18 µM
H-EITPEKNPQLR-OH,IC50,Fatty acid synthase [12],10 µM
same,IC50,Fatty acid synthase [8],27 µM
CC(C)(CCCCCC(O)CCCCCC(C)(C)C(=O)SCCNC(=O)CCNC(=O)[C@H](O)C(C)(C)COP(=O)(O)OP(=O)(O)OC[C@H]1O[C@@H](n2cnc3c(N)ncnc32)[C@H](O)[C@@H]1OP(=O)(O)O)C(=O)O (stereo not given in full),IC50,[17],29 µM
O=c1c(O)c(-c2ccc(O)c(O)c2)oc2cc(O)ccc12 [FISETIN],IC50,HepG2,> 400 µM
same,IC50,[10],18.8 µM
